# Measured values taken from patent publication US20130253022A1 (FOX CHASE CHEMICAL DIVERSITY CENTER, INC., priority 2010, published 2013).
# Columns and labels:
# Hippocampal Cultures [1] = assay: Neuroprotection from glutamate excitotoxicity, CFDA (neuronal viability) assay; format: cell-based; conditions: Rattus norvegicus, read-out: NP from Glutamate CFDA EC50
# From the text: (§1) Cell cultures: All compounds are screened with dissociated hippocampal cultures derived from embryonic day 18 rats as the primary test system. With this preparation, primary neurons are used to test for toxicity as well as neuroprotection in a highly relevant experimental system to epilepsy. In brief, hippocampal tissue are obtained commercially through Brain Bits (Springfield, Ill.) and cultures prepared as previously described by Brewer (Brewer, G. J. Serum-free B27/neurobasal medium supports differentiated growth of neurons from the striatum, substantia nigra, septum, cerebral cortex, cerebellum and dentate gyms, J. Neurosci. Res. 1995, 42, 674-683). The hippocampal neurons are platted at low density (10,000 cell/well) in a 96-well format and maintained in serum-free medium consisting of Neurobasal Medium supplemented with B27 and GlutaMAX (Gibco). Pre-coated poly-L-lysine coated plates are used because of the preferential adherence and survival of hippocampal neurons on this matrix support.
# (§2) Potent neuroprotection is the distinguishing characteristic that separates this program's anticonvulsants from all other commercial drugs for epilepsy. The experimental details and the rationale for the implemented assays are essential in differentiating these compounds from that of others. The central objective of all neuroprotective assays was their relevancy to excitotoxicity and oxidative stress related to epilepsy. Both the amount of glutamate and hydrogen peroxide used in the assays, as well as the time of treatment and duration of the experiment, were designed to be relevant to epilepsy. Further, all time parameters employed in these studies were empirically determined to be within the limits of reversible toxic events, yet using amounts of glutamate and hydrogen peroxide that were relevant to the disease. In regard to glutamate toxicity, a critical feature was the duration of treatment of the hippocampal neurons. The rational for using a short 5 min treatment with glutamate was based on the observation of Randall and Thayer (Randall, R. D.; Thayer, S. A. Glutamate-induced calcium transient triggers calcium overload and neurotoxicity in rat hippocampal neurons, J. Neurosci. 1992, 12, 1882-1895). […] The rationale is that this intense burst of glutamate and resulting calcium overload is relevant to seizures and therefore was important data to capture in the screening assay. The amount of glutamate (30 μM) employed in our screening was based on the basal levels of glutamate observed in microdialysis measurements of hippocampus from epileptogenic patients (Cavus et al. Decreased hippocampal volume on MRI is associated with increased extracellular glutamate in epilepsy patients, Epilepsia, 2008, 49, 1358-1366). In regard to hydrogen peroxide, the amount employed (10 μM) was detected in the hippocampus of rats after kainate-induced status epilepticus (Jarrett et. al., Mitochondrial DNA damage and impaired base excision repair during epileptogenesis, Neurobiol. Dis. 2008, 30, 130-138). To produce neural damage and death with these amounts of glutamate and hydrogen peroxide, the cultures were changed to a medium with significant depletion of antioxidant components in the defined medium supplement B-27 just prior to treatment with the compounds. […]
# Hippocampal Cultures [2] = assay: Neuroprotection from hydrogen peroxide (oxidative stress), propidium iodide assay; format: cell-based; conditions: Rattus norvegicus, read-out: NP from Hydrogen Peroxide PI EC50
# From the text: as §1
# as §2, with “compounds. This was performed to obtain a significant and reproducible toxic signal in the hippocampal neurons and because loss of antioxidant control may be a component of epileptogenesis (Waldbaum and Patel, Mitochondria, oxidative stress and temporal lobe epilepsy, Epilepsy Res. 2010 88, 23-45; Wu et al., Mitochondrial DNA mutation-elicited oxidative stress, oxidative damage, and altered gene expression in cultured cells of patients with MERRF syndrome, Mol. Neurobiol. 2010, 41, 256-266). Neuroprotection studies with hydrogen peroxide were conducted with cultures that were between day 12 and day 18. Studies of neuroprotection glutamate were conducted between day 19 and day 22.” for “compounds.”
# Hippocampal Cultures [3] = assay: Neuroprotection from glutamate excitotoxicity, propidium iodide (cell death) assay; format: cell-based; conditions: Rattus norvegicus, read-out: NP from Glutamate PI EC50
# From the text: as §1
# as §2, with “compounds. This was performed to obtain a significant and reproducible toxic signal in the hippocampal neurons and because loss of antioxidant control may be a component of epileptogenesis (Waldbaum and Patel, Mitochondria, oxidative stress and temporal lobe epilepsy, Epilepsy Res. 2010 88, 23-45; Wu et al., Mitochondrial DNA mutation-elicited oxidative stress, oxidative damage, and altered gene expression in cultured cells of patients with MERRF syndrome, Mol. Neurobiol. 2010, 41, 256-266). Neuroprotection studies with hydrogen peroxide were conducted with cultures that were between day 12 and day 18. Studies of neuroprotection glutamate were conducted between day 19 and day 22.” for “compounds.”
# Hippocampal Cultures [4] = assay: Neuroprotection from hydrogen peroxide (oxidative stress), CFDA assay; format: cell-based; conditions: Rattus norvegicus, read-out: NP from Hydrogen Peroxide CFDA EC50
# From the text: as §1
# as §2, with “compounds. This was performed to obtain a significant and reproducible toxic signal in the hippocampal neurons and because loss of antioxidant control may be a component of epileptogenesis (Waldbaum and Patel, Mitochondria, oxidative stress and temporal lobe epilepsy, Epilepsy Res. 2010 88, 23-45; Wu et al., Mitochondrial DNA mutation-elicited oxidative stress, oxidative damage, and altered gene expression in cultured cells of patients with MERRF syndrome, Mol. Neurobiol. 2010, 41, 256-266). Neuroprotection studies with hydrogen peroxide were conducted with cultures that were between day 12 and day 18. Studies of neuroprotection glutamate were conducted between day 19 and day 22.” for “compounds.”
# hippocampal neurons = assay: Heavy metal toxicity in hippocampal cultures, neuronal viability (CFDA); conditions: test concentration of metal ions 10 μM, medium without antioxidants
# From the text: All compounds were screened with dissociated hippocampal cultures derived from embryonic day 18 rats as the primary test system. With this preparation, primary neurons were used to test for prevention of heavy metal toxicity by the disclosed compounds. In brief, hippocampal tissue was obtained commercially through Brain Bits (Springfield, Ill.) and cultures prepared as previously described (Brewer, G. J. Serum-free B27/neurobasal medium supports differentiated growth of neurons from the striatum, substantia nigra, septum, cerebral cortex, cerebellum and dentate gyms, J. Neurosci. Res., 1995, 42, 674-683). The hippocampal neurons were platted at low density (10,000 cell/well) in a 96-well format and maintained in serum-free medium consisting of Neurobasal Medium supplemented with B27 and GlutaMAX (Gibco). Pre-coated poly-L-lysine coated plates are used because of the preferential adherence and survival of hippocampal neurons on this matrix support.
# Heavy metal toxicity is associated with the occurrence of seizures (Mathie et al. Zinc and copper: pharmacological probes and endogenous modulators of neuronal excitability. Pharmacol. Ther. 2006, 111, 567-583). […] To establish the dose-dependency of test agents, day 18 hippocampal cultures were utilized to study the toxicity produced after treatment with the heavy metals and neuroprotection after treatment with test compounds. […] Prior to treatment, the B27/Neural Basal media of the cultures were replaced with B27 neural basal medium without antioxidants for 18 hours. […] Further, the removal of antioxidants in the medium was performed to obtain a significant and reproducible toxic signal for heavy metal treatment of the hippocampal neurons.
# Toxicity produced by heavy metals is measured by decreases in neuronal viability. Carboxyfluorescein (CFDA) was used a vital stain for all cell toxicity and neuroprotection studies. With the use of the CytoFluor fluorimeter, the CFDA assay was employed to assess the viability of neurons. CFDA is a dye that becomes fluorescent upon cell entry and cleavage by cytosolic esterases (Petroski and Geller. Selective labeling of embryonic neurons cultures on astrocyte monolayers with 5(6)-carboxyfluorescein diacetate [CFDA]. J. Neurosci. Methods 1994, 52, 23-32). Neuronal specificity is obtained relative to astrocytes because the cleaved dye is extruded extracellularlly by glia with time, while dye in neurons remains intracellular.
# 6-Hz psychomotor seizure = assay: 6 Hz psychomotor seizure test, mouse; format: in vivo, mice; conditions: ip
# Protocol: Methods to measure anticonvulsant activity: All tests were conducted by the Anticonvulsant Screening Program (ASP) of the National Institute of Neurological Disease and Stroke at the National Institutes of Health. The 6 Hz Seizure Test: Compounds were further tested in the 6-Hz psychomotor seizure model. (Barton et al. Pharmacological characterization of the 6 Hz psychomotor seizure model of partial epilepsy. Epilepsy Res. 2001, 47, 217-227). This model is used to detect […] that may be useful for the treatment of therapy-resistant partial seizures. For this test, an alternative electrical stimulation paradigm is used with a low frequency (6 Hz), long duration (3 seconds) corneal stimulation. The seizure evoked by this low frequency stimulation is characterized by immobility, forelimb clonus, Straub tail and facial automatisms. Mice are tested from 15 min to 4 hours following an intraperitoneal dose of 100 mg/kg. Abolition of the clonic seizures indicates the ability of a compound to prevent partial or psychomotor seizures.
# [5] = system: pentylenetetrazol-induced clonic seizures; assay: Subcutaneous pentylenetetrazol seizure test (scPTZ), mouse; format: in vivo, Carworth Farms No. 1 mice; conditions: pentylenetetrazol 85 mg/kg s.c., test compound intraperitoneally, read-out: Mouse PTZ ED50, s.c.
# Protocol: Methods to measure anticonvulsant activity: All tests were conducted by the Anticonvulsant Screening Program (ASP) of the National Institute of Neurological Disease and Stroke at the National Institutes of Health. The subcutaneous pentylenetetrazol (metrazol) seizure test (scPTZ). This model primarily identifies compounds that raise seizure threshold. The behavioral seizure produced is not typical of absence epilepsy but clonic in nature. With some minor exceptions, the pharmacological profile of the scPTZ seizure model is consistent with the human condition. The scPTZ test utilizes a dose of pentylenetetrazol (85 mg/kg in Carworth Farms No. 1 mice and 70 mg/kg in Sprague-Dawley rats). This produces clonic seizures lasting for a period of at least five seconds in 97 percent of animals tested. At the anticipated time of testing the convulsant is administered subcutaneously. The test compound is administered intraperitoneally in mice and orally in rats. Animals are observed over a 30 minute period. Absence of clonic spasms in the observed time period indicates a compound's ability to abolish the effect of pentylenetetrazol on seizure threshold (Swinyard E A. Laboratory evaluation of antiepileptic drugs: review of laboratory methods. Epilepsia, 1969, 10, 107-119).
# [6] = system: MES-induced seizure spread; assay: Maximal electroshock seizure (MES) test, rat; format: in vivo, rats; conditions: po
# Protocol: (§3) Seizure-related assays, Maximal electroshock test: The most definitive assay for anti-seizure activity is the maximal electroshock (MES) test (Swinyard, E. A. Laboratory evaluation of antiepileptic drugs: review of laboratory methods, Epilepsia, 1969, 10, 107-119). […] With both rodent assays, the duration of action is of high importance as well as the potency of the response.
# (§4) Methods to measure anticonvulsant activity: All tests were conducted by the Anticonvulsant Screening Program (ASP) of the National Institute of Neurological Disease and Stroke at the National Institutes of Health.
# (§5) The Maximal Electroshock Seizure (MES) or Maximal Seizure Pattern Test: The MES is a model for generalized tonic-clonic seizures (Putnam and Merritt. Experimental determination of the anticonvulsant properties of some phenyl derivatives. Science 1937, 85, 113-118). It is highly reproducible with consistent endpoints. The behavioral and electrographic seizures generated in this model are consistent with the human disorder. This model identifies those compounds which prevent seizure spread.
# (§6) In the MES test, an electrical stimulus of 0.2 s in duration (50 mA in mice and 150 mA in rat at 60 Hz) is delivered via corneal electrodes primed with an electrolyte solution containing an anesthetic agent. Mice are tested at 30 minutes and 4 hours following doses of 30, 100 and 300 mg/kg of test compound. Test compounds are administered intraperitoneally to the mice. Rats are tested at time intervals between 0.25 and 4 hours following a standard oral dose of 30 mg/kg. Abolition of the hindlimb tonic extensor component indicates the test compound's ability to inhibit MES-induced seizure spread.
# [7] = system: MES-induced seizure spread; assay: Maximal electroshock seizure (MES) test, mouse; format: in vivo, mice
# Protocol: as §3, §4, §5, §6
# [8] = 30 μM glutamate 5 min, hippocampal cultures, 4 hour test period
# [9] = 10 μM hydrogen peroxide, hippocampal cultures, 4 hour test period
SMILES,EC50 (Hippocampal Cultures [2]; 4 h) [nM],EC50 (Hippocampal Cultures [3]) [nM],EC50 (Hippocampal Cultures [4]; 4 h) [nM],Loss of neuronal viability from metal (hippocampal neurons) [%],also measured
"NS(=O)(=O)NCC(F)c1ccccc1F (stereo not drawn) [Example 3, 2-Fluoro-2-(2-fluoro-phenyl)-ethylsulfamide]",0.01,0.1,0.01,,EC50 (Hippocampal Cultures [1]): 3 nM
O.O.O.O.O.O.[Cl-].[Cl-].[Co+2] [Cobalt Chloride hexahydrate],,,,36,
"COc1ccccc1C(F)(F)CNS(N)(=O)=O [Example 4, 2,2-Difluoro-2-(2-methoxyphenyl)-ethyl-1-sulfamide]",1,1,0.1,,
O.O.O.O.O.O.O=S(=O)([O-])[O-].[Fe+2] [Iron sulfate hexahydrate],,,,31,
"NS(=O)(=O)NCC(F)(F)c1ccccc1 [Example 5, 2,2-difluoro-2-phenyl-ethyl-1-sulfamide]",,,,,"ED50 (6-Hz psychomotor seizure): 16 mg/kg; EC50 (Hippocampal Cultures [1]; [8]): 0.1 nM; EC50 (Hippocampal Cultures [2]; [9]): 0.03 nM; EC50 (Hippocampal Cultures [3]; [8]): 0.1 nM; EC50 (Hippocampal Cultures [4]; [9]): 0.1 nM; ED50 [5]: 41 mg/kg; ED50 [6]: 26 mg/kg; Duration of action MES ([7]; Mouse Maximal Electroshock (MES) test at 100 mg/kg, i.p.): 4 h; ED50 ([7]; ip, mouse): 49 mg/kg"
"NS(=O)(=O)NCC(F)(F)c1csc2ccccc12 [Example 6, 2-Benzo[b]thiophen-3-yl-2,2-difluoro-ethyl sulfamide]",1,0.1,0.1,,EC50 (Hippocampal Cultures [1]): 0.1 nM
CC(=O)[O-].CC(=O)[O-].O.[Cu+2] [Copper Acetate monohydrate],,,,47,
O.O.O.O.O.O.[Cl][Ni][Cl] [Nickel Chloride hexahydrate],,,,33,
